The results in this text go back to US4010268A, “Derivatives of hexahydrodibenzofuran-3-one, their preparation and use in pharmaceutical compositions” (Roussel-UCLAF, priority 1974, dated 1977).

Structures can show the parent of a compound that is named as a salt.

The test system of data set [1] is cough experimentally induced by electric stimulation of the vagus nerve in the guinea pig. As to the kind of experiment: Antitussive activity: cough induced by electric stimulation of the vagus nerve. The format is in vivo. As to conditions: for inhibition in vivo at 100 mg/kg / ED50: Cavia porcellus; for inhibition in vivo at 100 mg/kg: 100 mg/kg oral, stimulus 20 and 40 minutes after administration, 6 negative responses = 100%, groups of 6 guinea pigs, read-out: Percentage cough inhibition; for antitussive activity (in words): conclusion from Table 3 results; for ED50: guinea pig, oral, vagus nerve stimulation, read-out: ED50 (dose which reduces the number of coughs by 50%). As for the experimental part:
The test consists of stimulating the vagus nerve of the guinea pig and repeating the stimulus 20 and 40 minutes after oral administration of 100 mg/kg of the product under test. 6 Negative responses (3 after 20 minutes and 3 after 40 minutes) represent a cough inhibition of 100%. The test was carried out in groups of 6 animals against groups of control animals (undosed).
In addition, for certain compounds the ED50 was also determined, i.e. that dose which reduces the number of coughs by 50%.

The nature of a further data set: Acute toxicity, oral. As to conditions: guinea pig, in vivo; guinea pigs, increasing oral dose. As for the experimental part: The acute toxicity of some of compounds of the invention was determined on guinea pigs which had received an increasing oral dose of the compound.

By LD50 is commonly meant the dose expected to kill half of the subjects tested. A low value points to greater toxicity. For `CCOC(=O)N1CCN(CCC(=O)N[C@@H]2C(=O)CC[C@]3(C)c4cc(C)ccc4O[C@H]23)CC1` (relative stereo) [Example 14], the inhibition in vivo at 100 mg/kg in data set [1] stood at 33%. Besides, the median lethal dose (LD50) in the data set “Acute toxicity, oral” was above 1000 mg/kg.
As to `CCN(CC(=O)N[C@@H]1C(=O)CC[C@]2(C)c3cc(C)ccc3O[C@H]12)Cc1ccccc1` (relative stereo) [Example 8], the LD50 in “Acute toxicity, oral” was above 800 mg/kg.
As to `Cc1ccc2c(c1)[C@@]1(C)CCC(=O)[C@@H](NC(=O)CN3CCCC3)[C@H]1O2` (relative stereo) [Example 7], in data set [1], the inhibition in vivo at 100 mg/kg turned out to be 17%. The molecule further had a median lethal dose (LD50) in the data set “Acute toxicity, oral” of around 800 mg/kg.
With `Cc1ccc2c(c1)[C@@]1(C)CCC(=O)[C@@H](NC(=O)CCN3CCCCC3)[C@H]1O2` (relative stereo) [Example 12], in data set [1], the inhibition in vivo at 100 mg/kg was determined as 46%. Besides, the LD50 in “Acute toxicity, oral” is around 400 mg/kg.
On to `Cc1ccc2c(c1)[C@@]1(C)CCC(=O)[C@@H](NC(=O)CCN(C)C)[C@H]1O2` (relative stereo) [Example 10, 8,9bβ-dimethyl-1,2,3,4,4aβ,9b-hexahydro-4α-[3-N,N-dimethylamino-propionamido]-dibenzofuran-3-one], for which, in data set [1], the inhibition in vivo at 100 mg/kg worked out at 89% and the “antitussive activity (in words)” value is on record as “important antitussive activity”. Further, the LD50 in “Acute toxicity, oral” lay in the range of 500 to 1000 mg/kg.
For `CC(=O)N1CCN(CCC(=O)N[C@@H]2C(=O)CC[C@]3(C)c4cc(C)ccc4O[C@H]23)CC1` (relative stereo) [Example 20], in data set [1], the inhibition in vivo at 100 mg/kg turned out to be 33%. The same molecule showed a median lethal dose (LD50) in “Acute toxicity, oral” above 1000 mg/kg.
Take `Cc1ccc2c(c1)[C@@]1(C)CCC(=O)[C@@H](NC(=O)CCN3CCOCC3)[C@H]1O2` (relative stereo) [Example 9]: the inhibition in vivo at 100 mg/kg in data set [1] turned out to be 39%.
The ED50 is the dose that gives a 50% effect, or the effect in half of the subjects. Turning to `Cc1ccc2c(c1)[C@@]1(C)CCC(=O)[C@@H](NC(=O)CCCCN(C)C)[C@H]1O2` (relative stereo) [Example 24, 8,9bβ-dimethyl-1,2,3,4,4aβ,9b-hexahydro-4α-[5-N,N-dimethylamino-valeramido]-dibenzofuran-3-one], in data set [1], the inhibition in vivo at 100 mg/kg worked out at 83%, the ED50 was found to be 71 mg/kg and the “antitussive activity (in words)” value is listed as “important antitussive activity”.
For `CCN(CC)CCC(=O)N[C@@H]1C(=O)CC[C@]2(C)c3cc(C)ccc3O[C@H]12` (relative stereo) [Example 19], the inhibition in vivo at 100 mg/kg in data set [1] was found to be 33%.
Still for that read-out and setting: in the case of `Cc1ccc2c(c1)[C@@]1(C)CCC(=O)[C@@H](NC(=O)CCN3CCN(CCO)CC3)[C@H]1O2` (relative stereo) [Example 16] it was 17%.
Consider `Cc1ccc2c(c1)[C@@]1(C)CCC(=O)[C@@H](NC(=O)CCCN(C)C)[C@H]1O2` (relative stereo) [Example 23], for which the inhibition in vivo at 100 mg/kg in data set [1] is 67%.
As to `Cc1ccc2c(c1)[C@@]1(C)CCC(=O)[C@@H](NC(=O)CCN3CCN(c4ccccc4)CC3)[C@H]1O2` (relative stereo) [Example 15], the inhibition in vivo at 100 mg/kg in data set [1] was determined as 54%.
Take `Cc1ccc2c(c1)[C@@]1(C)CCC(=O)[C@@H](NC(=O)CCN3CCNCC3)[C@H]1O2` (relative stereo) [Example 13, 8,9bβ-1,2,3,4,4aβ,9b-hexahydro-4α-[3-piperazinopropionamido]-dibenzofuran-3-one]: the inhibition in vivo at 100 mg/kg in data set [1] stood at 75%. The LD50 in the data set “Acute toxicity, oral” is above 1000 mg/kg.
Turning to `Cc1ccc2c(c1)[C@@]1(C)CCC(=O)[C@@H](NC(=O)CCN3CCCC3)[C@H]1O2` (relative stereo) [Example 11], the inhibition in vivo at 100 mg/kg in data set [1] amounted to 44%. The LD50 in “Acute toxicity, oral” is around 600 mg/kg.
As for `CCN1CCN(CCC(=O)N[C@@H]2C(=O)CC[C@]3(C)c4cc(C)ccc4O[C@H]23)CC1` (relative stereo) [Example 21], the median lethal dose (LD50) in the data set “Acute toxicity, oral” was above 1000 mg/kg.
For the molecule `Cc1ccc2c(c1)[C@@]1(C)CCC(=O)[C@@H](NC(=O)CCCCCN(C)C)[C@H]1O2` (relative stereo) [Example 25], the inhibition in vivo at 100 mg/kg in data set [1] was found to be 25%.
Take `Cc1ccc2c(c1)[C@@]1(C)CCC(=O)[C@@H](NC(=O)CCN3CCN(C)CC3)[C@H]1O2` (relative stereo) [Example 1, 8,9bβ-dimethyl-1,2,3,4,4aβ,9b-hexahydro-4α-[3-(4-methylpiperazin-1-yl)-propionamido]-dibenzofuran-3-one dihydrochloride]: in data set [1], the inhibition in vivo at 100 mg/kg came out at 100%, the ED50 turned out to be 32.5 mg/kg and the “antitussive activity (in words)” value was “important antitussive activity”. The molecule also came in with an LD50 in the data set “Acute toxicity, oral” of 1480 mg/kg.
Regarding `Cc1ccc2c(c1)[C@@]1(C)CCC(=O)[C@@H](NC(=O)CCN(C)CCN(C)C)[C@H]1O2` (relative stereo) [Example 18], the inhibition in vivo at 100 mg/kg in data set [1] came to 50%. Moreover, the LD50 in the data set “Acute toxicity, oral” was above 1000 mg/kg.
Take `Cc1ccc2c(c1)[C@@]1(C)CCC(=O)[C@@H](NC(=O)CCCN3CCN(C)CC3)[C@H]1O2` (relative stereo) [Example 22, 8,9bβ-dimethyl-1,2,3,4,4aβ,9b-hexahydro-4α-[4-(4-methylpiperazin-1-yl)-butyramido]-dibenzofuran-3-one]: the inhibition in vivo at 100 mg/kg in data set [1] is 72%.
For `Cc1ccc2c(c1)[C@@]1(C)CCC(=O)[C@@H](NC(=O)CCN3CCN(Cc4ccccc4)CC3)[C@H]1O2` (relative stereo) [Example 17], in data set [1], the inhibition in vivo at 100 mg/kg was found to be 33%. This molecule also came in with an LD50 in the data set “Acute toxicity, oral” above 1000 mg/kg.
Turning to `Cc1ccc2c(c1)[C@@]1(C)CCC(=O)[C@@H](NC(=O)CN3CCN(C)CC3)[C@H]1O2` (relative stereo) [Example 4], the inhibition in vivo at 100 mg/kg in data set [1] turned out to be 43%. Besides, the 50% lethal dose (LD50) in the data set “Acute toxicity, oral” is above 800 mg/kg.
